The text below walks through data of ChEMBL document CHEMBL5380816, “Inclusion of Nitrofurantoin into the Realm of Cancer Chemotherapy via Biology-Oriented Synthesis and Drug Repurposing” (J Med Chem, 2023).

Activity calls are given as the source filed them. The rule behind the calls is not given here.

In general, IC50 refers to the concentration at which inhibition is half-maximal.

Test [1] concerns Caco-2. Description: Anticancer activity against human Caco-2 cells assessed as round cells incubated at 0.098uM for 72 hrs by phase contrast inverted microscopic analysis. The test is classed as functional, cell-based.
The subject of test [2] is Caco-2. As to the kind of experiment: Anticancer activity against human Caco-2 cells assessed as losing contact with neighbouring cells incubated at 0.098uM for 72 hrs by phase contrast inverted microscopic analysis. It is filed as functional, cell-based.
Test [3] relates to MCF7. Description: Anticancer activity against human MCF7 cells assessed as absence of normal spindle shape incubated at 0.098uM for 72 hrs by phase contrast inverted microscopic analysis. The test is classed as functional, cell-based.
The subject of test [4] is HeLa. Description: Anticancer activity against human HeLa cells assessed as smaller cells incubated at 0.098uM for 72 hrs by phase contrast inverted microscopic analysis. It is filed as functional, cell-based.
Test [5] relates to Caco-2. As to the kind of experiment: Induction of apoptosis in human Caco-2 cells assessed as early apoptotic cells incubated at 0.098 uM for 72 hrs by annexin V-FITC based propidium iodide dual staining assay (reference value: 0.07%). It is filed as functional.
Test [6] deals with HepG2. As to the kind of experiment: Induction of apoptosis in human HepG2 cells assessed as viable cells incubated at 0.098 uM for 72 hrs by annexin V-FITC based propidium iodide dual staining assay (reference value: 97.27%). The settings on record: read-out: Activity. The test is classed as functional.
Test [7] deals with MCF7. As to the kind of experiment: Induction of apoptosis in human MCF7 cells assessed as late apoptotic cells incubated at 0.017 uM for 72 hrs by annexin V-FITC based propidium iodide dual staining assay (reference value: 0.01%). It is filed as functional.
Test [8] concerns MCF7. Description: Induction of apoptosis in human MCF7 cells assessed as total apoptotic cells incubated at 0.017 uM for 72 hrs by annexin V-FITC based propidium iodide dual staining assay (reference value: 0.04 %). The test is classed as functional.
For test [9], the system named is MCF7. Description: Induction of apoptosis in human MCF7 cells assessed as viable cells by measuring green uniform patch incubated at 0.017 uM for 72 hrs by acridine orange-ethidium bromide dual staining based fluorescence microscopic analysis. The test is classed as functional, cell-based.
Test [10] deals with MCF7. Description: Induction of apoptosis in human MCF7 cells assessed as caspase3/7 activation at 0.017 uM using caspase-glo 3/7 as substrate relative to control. The test is classed as functional.
In test [11] the test system is Caco-2. Description: Induction of apoptosis in human Caco-2 cells assessed as caspase3/7 activation at 0.11 uM using caspase-glo 3/7 as substrate relative to control. The test is classed as functional.
For test [12], the system named is MCF7. Description: Anticancer activity against human MCF7 cells assessed as smaller cells incubated at 0.11 uM for 72 hrs by phase contrast inverted microscopic analysis. It is filed as functional, cell-based.
Test [13] has as its system MCF7. Description: Anticancer activity against human MCF7 cells assessed as absence of normal spindle shape incubated at 0.11 uM for 72 hrs by phase contrast inverted microscopic analysis. The test is classed as functional, cell-based.
The subject of test [14] is HeLa. As to the kind of experiment: Anticancer activity against human HeLa cells assessed as losing contact with neighbouring cells incubated at 0.11 uM for 72 hrs by phase contrast inverted microscopic analysis. The test is classed as functional, cell-based.
Test [15] relates to HeLa. Description: Anticancer activity against human HeLa cells assessed as absence of normal spindle shape incubated at 0.11 uM for 72 hrs by phase contrast inverted microscopic analysis. The test is classed as functional, cell-based.
The subject of test [16] is HepG2. As to the kind of experiment: Anticancer activity against human HepG2 cells assessed as round cells incubated at 0.11 uM for 72 hrs by phase contrast inverted microscopic analysis. It is filed as functional, cell-based.
The test system of test [17] is HepG2. As to the kind of experiment: Anticancer activity against human HepG2 cells assessed as losing contact with neighbouring cells incubated at 0.11 uM for 72 hrs by phase contrast inverted microscopic analysis. It is filed as functional, cell-based.
Test [18] has as its system HepG2. Description: Anticancer activity against human HepG2 cells assessed as absence of normal spindle shape incubated at 0.11 uM for 72 hrs by phase contrast inverted microscopic analysis. It is filed as functional, cell-based.
The test system of test [19] is Caco-2. Description: Induction of apoptosis in human Caco-2 cells assessed as viable cells incubated at 0.11 uM for 72 hrs by annexin V-FITC based propidium iodide dual staining assay (reference value: 99.89%). It is filed as functional. The conditions noted are these: read-out: Activity.
In test [20] the test system is MCF7. As to the kind of experiment: Induction of apoptosis in human MCF7 cells assessed as viable cells incubated at 0.11 uM for 72 hrs by annexin V-FITC based propidium iodide dual staining assay (reference value: 99.9%). It is filed as functional. The conditions noted are these: read-out: Activity.
In test [21] the test system is MCF7. Description: Induction of apoptosis in human MCF7 cells assessed as necrotic cells incubated at 0.11 uM for 72 hrs by annexin V-FITC based propidium iodide dual staining assay (reference value: 0.03%). The test is classed as functional.
The subject of test [22] is HeLa. Description: Induction of apoptosis in human HeLa cells assessed as total apoptotic cells incubated at 0.11 uM for 72 hrs by annexin V-FITC based propidium iodide dual staining assay (reference value: 0 +/- 0.035%). It is filed as functional.
The subject of test [23] is HeLa. As to the kind of experiment: Induction of apoptosis in human HeLa cells assessed as early apoptotic cells by measuring bright green patch incubated at 0.11 uM for 72 hrs by acridine orange-ethidium bromide dual staining based fluorescence microscopic analysis. It is filed as functional, cell-based.
Test [24] deals with MCF7. As to the kind of experiment: Induction of apoptosis in human MCF7 cells assessed as late apoptotic cells by measuring orange to red patch incubated at 0.11 uM for 72 hrs by acridine orange-ethidium bromide dual staining based fluorescence microscopic analysis. It is filed as functional, cell-based.
The subject of test [25] is HeLa. Description: Induction of apoptosis in human HeLa cells assessed as late apoptotic cells by measuring orange to red patch incubated at 0.11 uM for 72 hrs by acridine orange-ethidium bromide dual staining based fluorescence microscopic analysis. It is filed as functional, cell-based.
Test [26] concerns HepG2. As to the kind of experiment: Induction of apoptosis in human HepG2 cells assessed as late apoptotic cells by measuring orange to red patch incubated at 0.11 uM for 72 hrs by acridine orange-ethidium bromide dual staining based fluorescence microscopic analysis. It is filed as functional, cell-based.
Test [27] concerns HeLa. As to the kind of experiment: Induction of oxidative stress in human HeLa cells assessed as cell death by measuring redox alteration fluorescence incubated at 0.098 uM for 72 hrs in presence of dihydro dichlorofluorescein diacetate by DCFH-DA based flow cytometric analysis relative to control. It is filed as functional. A general note: A flow cytometer gives signals particle by particle.

Test [28] concerns dsDNA. As to the kind of experiment: Induction of damage in dsDNA (unknown origin) assessed as instantaneous DNA disruption by measuring decrease in fluorescence intensity at 100 uM incubated upto 160 mins by EvaGreen based fluorescence plate reader analysis. The test is classed as nucleic-acid assay.
In test [29] the test system is Caco-2. Description: Anticancer activity against human Caco-2 cells incubated for 24 hrs by MTT assay. It is filed as functional, cell-based. The conditions noted are these: Caco-2, 24 h.
The test system of test [30] is UMUC3. As to the kind of experiment: Anti-clonogenicic activity in human UC3 cells assessed as reduction of colony formation at 5 uM for 24 hrs by crystal violet based staining relative to control. The test is classed as functional. The arrangement: scale not given: the % may be the effect or the level left.
Test [31] relates to Caco-2. Description: Anticancer activity against human Caco-2 cells assessed as absence of normal spindle shape incubated at 0.097uM for 72 hrs by phase contrast inverted microscopic analysis. It is filed as functional, cell-based.
For test [32], the system named is HeLa. As to the kind of experiment: Anticancer activity against human HeLa cells assessed as smaller cells incubated at 0.097uM for 72 hrs by phase contrast inverted microscopic analysis. It is filed as functional, cell-based.
The subject of test [33] is HeLa. As to the kind of experiment: Anticancer activity against human HeLa cells assessed as losing contact with neighbouring cells incubated at 0.097uM for 72 hrs by phase contrast inverted microscopic analysis. It is filed as functional, cell-based.
Test [34] has as its system HepG2. Description: Anticancer activity against human HepG2 cells assessed as smaller cells incubated at 0.097uM for 72 hrs by phase contrast inverted microscopic analysis. It is filed as functional, cell-based.
Test [35] has as its system MCF7. As to the kind of experiment: Induction of apoptosis in human MCF7 cells assessed as necrotic cells incubated at 0.097 uM for 72 hrs by annexin V-FITC based propidium iodide dual staining assay (reference value: 0.03%). It is filed as functional.
Test [36] concerns Caco-2. As to the kind of experiment: Induction of apoptosis in human Caco-2 cells assessed as caspase3/7 activation at 0.097 uM using caspase-glo 3/7 as substrate relative to control. It is filed as functional.
Test [37] has as its system MCF7. As to the kind of experiment: Induction of apoptosis in human MCF7 cells assessed as caspase3/7 activation at 0.097 uM using caspase-glo 3/7 as substrate relative to control. It is filed as functional.

For the molecule `O=C(CN1C(=O)CN(/N=C/c2ccc([N+](=O)[O-])o2)C1=O)c1ccc(Cl)cc1`, the outcome in test [1], in test [2], in test [3] and in test [4] was Active. For the same molecule, in [5], the Activity was 8.53%. In test [6], the viability at 0.098 µM worked out at 55%.
For the molecule `O=c1[nH]cc(F)c(=O)[nH]1` [FLUOROURACIL], the values for the Activity in test [7], in [8] and in test [10] were 2.26%, 2.94% and 12%, respectively. For the same molecule, the outcome in test [9] was Active.
Take `C#CCN1C(=O)CN(/N=C/c2ccc([N+](=O)[O-])o2)C1=O`: the Activity in [11] came out at 55%; in [21], 4.01%; in test [22] it was 25.17%; in test [27], 30.75%; in test [30], 75%. For the same molecule, the outcome in test [12], in test [13], in test [14], in [15], in [16] and in test [17] was Active. The result in test [18], in test [23], in [24], in test [25], in [26] and in test [28] was Active. The viability at 0.11 µM turned out to be 49.4% in test [19] and 53.7% in test [20]. Also, the concentration for half-maximal inhibition (IC50) in test [29] stood at 89 µM.
As for `NS(=O)(=O)c1ccc(-n2cc(CN3C(=O)CN(/N=C/c4ccc([N+](=O)[O-])o4)C3=O)nn2)cc1`, the result in test [31], in [32], in test [33] and in test [34] was Active. For the same molecule, the Activity in test [35] was found to be 0.6%; in test [36], 58%; in [37], 58%.
